The results in this text go back to patent US20230287027A1, “ADJUVANT WITH TLR4 AGONIST ACTIVITY” (Sumitomo Pharma Co., Ltd, priority 2020, published 2023).

Assay [1] deals with T1, human TLR4 (Homo sapiens, UniProt O00206+Q9Y6Y9).
T1 construct: host or cells: HEK-Blue hTLR4 cell line
The experiment in a line: Human TLR4 reporter gene assay (Test 1). The assay is classed as cell-based. Particulars: HEK-Blue hTLR4 cell line, SEAP reporter, 37° C. 16-20 hours, 0.1% DMSO; concentration giving half of maximal SEAP level induced with LPS. The source says: Human TLR4 Reporter Gene Assay
(§1) HEK-Blue™ hTLR4 cell line (Invivogen Corporation) is a stably co-transfected cell line which expresses human TLR4, MD2, CD14, and secretory alkaline phosphatase (SEAP) reporter gene under the transcriptional regulation of an NF-κB response element. The TLR4 expression of the cell line has been already tested by RT-PCR, flow cytometry. Transfectants with stable expression were selected using the antibiotic HEK-Blue™ Selection. TLR signaling leads to the translocation of NF-κB and the activation of the promoter results in expression of the SEAP gene. TLR4-specific activation was assessed by determining the level of SEAP produced following incubation of the cells at 37° C. for 16-20 hours with each compound prepared in Examples and Reference examples in the presence of 0.1% (v/v) DMSO. The human TLR4 activity for the present compound was assessed by human TLR4 reporter gene assay, and the concentration of the compound concentration which produced half of the maximal level of SEAP induced with lipopolysaccharide (LPS) was determined as EC50.

The target of assay [2] is T2, mouse TLR4 (Mus musculus, UniProt Q9JHF9+Q9QUK6).
T2 construct: host or cells: HEK-Blue mTLR4 cell line
T2 sequence (Q9QUK6 26-835): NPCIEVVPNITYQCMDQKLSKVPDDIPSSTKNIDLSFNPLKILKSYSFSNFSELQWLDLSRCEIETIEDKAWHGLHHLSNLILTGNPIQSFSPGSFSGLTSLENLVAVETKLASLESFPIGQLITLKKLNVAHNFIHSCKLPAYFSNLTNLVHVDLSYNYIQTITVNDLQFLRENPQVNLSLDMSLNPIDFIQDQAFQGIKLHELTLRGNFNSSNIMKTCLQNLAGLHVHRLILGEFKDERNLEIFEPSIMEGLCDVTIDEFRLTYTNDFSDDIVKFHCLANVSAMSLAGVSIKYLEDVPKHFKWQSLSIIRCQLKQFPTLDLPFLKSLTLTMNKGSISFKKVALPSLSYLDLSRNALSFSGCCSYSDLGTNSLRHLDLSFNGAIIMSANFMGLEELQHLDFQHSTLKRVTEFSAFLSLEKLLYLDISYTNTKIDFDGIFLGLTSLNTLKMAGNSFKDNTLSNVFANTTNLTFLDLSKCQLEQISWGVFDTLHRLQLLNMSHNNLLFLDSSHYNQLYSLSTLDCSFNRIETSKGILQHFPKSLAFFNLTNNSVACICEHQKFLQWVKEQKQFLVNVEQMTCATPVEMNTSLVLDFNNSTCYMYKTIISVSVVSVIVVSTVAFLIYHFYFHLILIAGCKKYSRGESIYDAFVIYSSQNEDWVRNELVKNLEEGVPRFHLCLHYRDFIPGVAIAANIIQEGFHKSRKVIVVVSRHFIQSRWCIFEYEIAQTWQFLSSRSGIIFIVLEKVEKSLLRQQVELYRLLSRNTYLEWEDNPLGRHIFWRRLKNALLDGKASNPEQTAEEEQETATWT
T2 sequence (Q9JHF9 19-160): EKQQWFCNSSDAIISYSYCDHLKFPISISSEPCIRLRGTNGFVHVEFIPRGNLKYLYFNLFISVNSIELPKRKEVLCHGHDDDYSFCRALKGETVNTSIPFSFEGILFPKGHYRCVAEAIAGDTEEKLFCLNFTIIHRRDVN
The experiment in a line: Mouse TLR4 reporter gene assay (Test 2). Particulars: HEK-Blue mTLR4 cell line, SEAP reporter, 37° C. 16-20 hours, 0.1% DMSO; concentration giving half of maximal SEAP level induced with LPS. In kind it is cell-based.
Source text: Mouse TLR4 Reporter Gene Assay
as §1, with “mTLR4” for “hTLR4”, “(Invivogen)” for “(Invivogen Corporation)”, “mouse” for “human”, “CD14” for “CD14,”, “SEAP” for “alkaline phosphatase (SEAP)”, “LPS” for “lipopolysaccharide (LPS)”
(In general: Reporter assays use an easily measured gene product as a stand-in for the process of interest.)

Some results are limits rather than exact numbers.

T1 sequence (O00206 24-839): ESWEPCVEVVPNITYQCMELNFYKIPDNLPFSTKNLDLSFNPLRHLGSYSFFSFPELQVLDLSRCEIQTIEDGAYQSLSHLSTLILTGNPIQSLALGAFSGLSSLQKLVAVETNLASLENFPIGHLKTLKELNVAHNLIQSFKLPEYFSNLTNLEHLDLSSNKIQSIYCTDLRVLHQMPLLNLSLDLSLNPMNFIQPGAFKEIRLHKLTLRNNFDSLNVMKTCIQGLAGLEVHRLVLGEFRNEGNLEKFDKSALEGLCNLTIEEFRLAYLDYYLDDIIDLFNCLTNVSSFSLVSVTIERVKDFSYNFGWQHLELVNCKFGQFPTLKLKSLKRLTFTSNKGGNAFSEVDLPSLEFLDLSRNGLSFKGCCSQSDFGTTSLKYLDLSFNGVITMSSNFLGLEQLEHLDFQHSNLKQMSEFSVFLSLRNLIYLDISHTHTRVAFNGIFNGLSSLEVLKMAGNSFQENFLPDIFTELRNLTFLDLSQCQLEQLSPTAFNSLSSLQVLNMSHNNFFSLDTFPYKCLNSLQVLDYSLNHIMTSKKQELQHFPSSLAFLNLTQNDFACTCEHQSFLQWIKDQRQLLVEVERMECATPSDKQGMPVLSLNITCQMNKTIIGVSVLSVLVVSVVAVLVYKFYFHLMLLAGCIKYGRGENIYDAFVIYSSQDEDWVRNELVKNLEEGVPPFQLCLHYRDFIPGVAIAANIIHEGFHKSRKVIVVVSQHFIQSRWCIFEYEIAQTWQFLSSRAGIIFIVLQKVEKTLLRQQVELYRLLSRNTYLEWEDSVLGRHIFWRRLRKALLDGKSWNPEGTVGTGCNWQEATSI
T1 sequence (Q9Y6Y9 17-160 limits assumed): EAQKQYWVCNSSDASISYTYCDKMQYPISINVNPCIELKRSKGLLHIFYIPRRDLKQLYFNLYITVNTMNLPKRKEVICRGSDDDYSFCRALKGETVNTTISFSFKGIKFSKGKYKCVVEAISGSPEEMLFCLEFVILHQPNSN

For `CCCCCCCCCCC[C@H](CC(=O)NC(COC1OC(CO)C(O)C(OC(=O)C[C@@H](CCCCCCCCCCC)OC(=O)CCCCCCCCC)C1NC(=O)C[C@@H](CCCCCCCCCCC)OC(=O)CCCCCCCCC)C(=O)O)OC(=O)CCCCCCCCc1ccccc1` (stereo partly drawn) [Example 5, (2S)-2-({[(3R)-3-(9-phenylnonanoyl)oxy]tetradecanoyl}amino)-3-{[3-{[(3R)-3-(decanoyloxy)tetradecanoyl]amino}-5-hydroxy-6-(hydroxymethyl)-4-({(3R)-3-(decanoyloxy)tetradecanoyl}oxy)oxan-2-yl]oxy}propanoic acid], the EC50 (commonly the concentration giving half of the maximal effect) in assay [1] is 101 nM; in assay [2], 49.7 nM.
In the same order, the values of `CCCCCCCCCCC[C@H](CC(=O)NC(COC1OC(CO)C(OP(=O)(O)O)C(OC(=O)C[C@@H](CCCCCCCCCCC)OC(=O)CCCCCCCCc2ccccc2)C1NC(=O)C[C@@H](CCCCCCCCCCC)OC(=O)CCCCCCCCC)C(=O)O)OC(=O)CCCCCCCCC` (stereo partly shown) [Reference example 10] are 12.9 nM and 12.9 nM.
In the same order, the values of `CCCCCCCCCCC[C@H](CC(=O)NC(COC1OC(CO)C(OP(=O)(O)O)C(OC(=O)C[C@@H](CCCCCCCCCCC)OC(=O)CCCCCCCCC)C1NC(=O)C[C@@H](CCCCCCCCCCC)OC(=O)CCCCCCCCc1ccccc1)C(=O)O)OC(=O)CCCCCCCCC` (single isomer, unassigned) [compound 11] are 457 nM and 50.3 nM.
Turning to “(2R)-2-({[(3R)-3-(9-phenylnonanoyl)oxy]tetradecanoyl}amino)-3-{[3-{[(3R)-3-(decanoyloxy)tetradecanoyl]amino}-5-hydroxy-6-(hydroxymethyl)-4-({(3R)-3-(decanoyloxy)tetradecanoyl}oxy)oxan-2-yl]oxy}propanoic acid [Example 4]”, in assay [1], the “human TLR4 EC50” value was 0.077 µg/mL. Further, the “mouse TLR4 EC50” value in assay [2] amounted to 0.057 µg/mL.
`CCCCCCCCCCC[C@H](CC(=O)NC(COC1OC(CO)C(OP(=O)(O)O)C(OC(=O)C[C@@H](CCCCCCCCCCC)OC(=O)CCCCCCCCC)C1NC(=O)C[C@@H](CCCCCCCCCCC)OC(=O)CCCCCCCCC)C(=O)O)OC(=O)CCCCCCCCc1ccccc1` (stereo partly shown) [compound 14]: the 50% effective concentration (EC50) in assay [1] and in assay [2] was 14.2 nM each time.
On to `CCCCCCCCCCC[C@H](CC(=O)NC1C(OC[C@@H](NC(=O)C[C@@H](CCCCCCCCCCC)OC(=O)CCCCCCCCC)C(=O)O)OC(CO)C(O)C1OC(=O)C[C@@H](CCCCCCCCCCC)OC(=O)CCCCCCCCC)OC(=O)CCCCCCCCc1ccccc1` (stereo partly drawn) [Example 3, (2R)-2-{[(3R)-3-(decanoyloxy)tetradecanoyl]amino}-3-{[4-{[(3R)-3-(decanoyloxy)tetradecanoyl]oxy}-5-hydroxy-6-(hydroxymethyl)-3-({(3R)-3-[(9-phenylnonanoyl)oxy]tetradecanoyl}amino)oxan-2-yl]oxy}propanoic acid], for which the EC50 in assay [1] was 161 nM; in assay [2], 137 nM.
For `CCCCCCCCCCC[C@H](CC(=O)NC(COC1OC(CO)C(OP(=O)(O)O)C(OC(=O)C[C@@H](CCCCCCCCCCC)OC(=O)CCCCCCCCC)C1NC(=O)C[C@@H](CCCCCCCCCCC)OC(=O)CCCCCCCCc1ccccc1)C(=O)O)OC(=O)CCCCCCCCC` (single isomer, unassigned) [compound 12] the same measures were > 645 nM and > 645 nM.
For `CCCCCCCCCCC[C@H](CC(=O)NC(COC1OC(CO)C(OP(=O)(O)O)C(OC(=O)C[C@@H](CCCCCCCCCCC)OC(=O)CCCCCCCCC)C1NC(=O)C[C@@H](CCCCCCCCCCC)OC(=O)CCCCCCCCC)C(=O)O)OC(=O)CCCCCCCCc1ccccc1` (stereo partly shown) [compound 13] the same measures were 34.2 nM and 13.5 nM.
